Experiments:
[1] = Tablet dissolution over time in media of various pH; format: physicochemical; conditions: for Dependence of dissolution on pH of the medium: oral dosage form, pH 1 to 6.8 and deionized water; for Fraction of tablet dissolved / Dissolution: tablet
Protocol: The dissolution media used were (a) pH 1 (0.1N HCl) 50 ml of cone HCl mixed in 6 L of water; (b) pH 4.5 acetate buffer (20 mM) […] of sodium acetate trihydrate dissolved in 6 L of water, pH adjusted to 4.5 with acetic acid; (c) pH 5.5 phosphate buffer (20 mM) 16.3 g of potassium dihydrogen phosphate in 6 L of water. pH adjusted to 5.5 with NaOH; (d) pH 6.8 phosphate buffer (20 mM) 16.3 g of potassium dihydrogen phosphate in 6 L of water. pH adjusted 6.8 with NaOH. A standard dissolution protocol was used. The standard solution (0.006 mg/mL of eszopiclone free base) was prepared by weighing a known amount (˜20 mg) of the free base into a 100 mL volumetric flask. 10 mL of acetonitrile was added into the flask and sonicated until the solids dissolved completely. The solution was cooled to room temperature and made up to the 100 mL mark using media and mixed well. Dilute 3 mL to 100 mL using media. The tables were prepared by transferring 500 mL dissolution media into the 6 vessels. Blank readings were taken for all the probes using media. Standards were read for individual vessels. Probes were washed with media and then inserted back into each vessel. One tablet was transferred into each vessel. The dissolution program was started immediately and readings were taken at 305 nm for 60 min (every 1 min for 20 min and then every 10 min).
FIG. 1 depicts dissolution profiles of the eszopiclone free base at pH 1 (0.1N HCl), pH 4.5 in buffer, pH 5.5 in buffer, pH 6.8 in buffer and in deionized water. […] It can be seen that the dissolution is greater than 50% within five minutes and greater than 80% at one hour at all pH.

[2] = Aqueous solubility (24 hour equilibrated suspension in water, HPLC); format: physicochemical; conditions: for pH measured at saturation: saturated suspension in water
Protocol: The aliquot was diluted and analyzed by HPLC (Waters). The data was compared to a standard curve generated from a set of solutions of known concentrations. The standard curve and the samples were analyzed using a HPLC using the following conditions: […]

Row | Compound | Dependence of dissolution on pH of the medium ([1]; listed as eszopiclone free base) | Fraction of tablet dissolved ([1]; deionized water, at one hour) | Dissolution ([1]; pH 1 (0.1N HCl)) | Fraction of tablet dissolved ([1]; pH 6.8 buffer, at one hour) | pH measured at saturation [2] | Solubility ([2]; water, ambient, equilibrated 24 hour) | Dependence of dissolution on pH of the medium ([1]; listed as L-malate salt) | Dissolution ([1]; at one hour, all pH (pH 1, 4.5, 5.5, 6.8, deionized water)) | Dissolution ([1]; within five minutes, all pH (pH 1, 4.5, 5.5, 6.8, deionized water))
1 | CN1CCN(C(=O)O[C@H]2c3nccnc3C(=O)N2c2ccc(Cl)cn2)CC1 [Free base, [(9S)-8-(5-chloropyridin-2-yl)-7-oxo-2,5,8-triazabicyclo[4.3.0]nona-1,3,5-trien-9-yl]-4-methyl piperazine-1-carboxylate] | decreases markedly as the pH rises | less than one half | rapid and complete | less than one half | 7.6 | 0.2^1 mgA/mL |  |  | 
2 | CN1CCN(C(=O)O[C@H]2c3nccnc3C(=O)N2c2ccc(Cl)cn2)CC1 [L-malate, (S)-Zopiclone L-Malate] |  |  |  |  | 3.9 |  | dissolve quickly and at substantially the same rate, regardless of the pH of the dissolving medium | greater than 80% | greater than 50%
